Experimental data published in patent EP4389121A1, “ANTIVIRAL AMINO ACID DERIVATIVES” (Consejo Superior De Investigaciones Científicas (CSIC), priority 2022, dated 2024).
Read-outs that look alike come from different tables or passages of the source.

How the values were obtained:
[1] = system: SARS-CoV-2 in Vero-E6 cells; assay: microbe, parasite or virus in culture; format: cell-based; settings: for EC50: read-out: EC50 approx.
[2] = in vitro; settings: human
Experimental: To evaluate the cytotoxicity profile of the selected compounds MTT assays were performed in Vero-E6 and A549-ACE2 cells. Uninfected cells were incubated with a range of compound concentrations (from 50 to 0.78 µM) for forty-eight hours, time at which the MTT substrate [3-(4,5-dimethylthiazol-2-yl)-2,5-diphenyltetrazolium bromide] was added and the formation of formazan precipitates was evaluated two hours later, using a colorimetric readout. Vehicle-treated (DMSO) cells were used as reference (100 %).

[3] = in vitro; settings: human; remark: listed apart in the source
Experimental: (§1) To study the antiviral effect of selected compounds of the family against a distinct human coronavirus, Huh-7 cell monolayers were infected with a GFP-expressing recombinant HCoV 229E (229E-GFP) at MOI 0.01 in the presence of a wide range of compound concentrations (0.4 to 50 µM). Forty-eight hours later cells were fixed by 10 minutes incubation with a 4 % formaldehyde-PBS solution. After extensive washes with PBS, infection efficiency was evaluated by the detection of GFP accumulation by fluorescence microscopy. Nuclei were stained using DAPI (4',6-diamidino-2-phenylindole) dye. Automated imaging was carried out in a SparkCyto (Tecan) multimode plate reader. The total intensity signal present in vehicle-treated (DMSO) conditions was used as reference (100 %).

[4] = in vitro; settings: human; remark: listed apart in the source
[5] = system: SARS-CoV-2; assay: Intracellular viral antigen (N protein) accumulation by immunofluorescence, Vero-E6 cells; format: cell-based
[6] = Cytotoxicity by MTT colorimetric assay, Vero-E6; format: cell-based; settings: African green monkey, uninfected Vero-E6 cells
[7] = in vitro; settings: human; remark: listed apart in the source
Experimental: Cytotoxicity profile of the selected compounds was evaluated by MTT assays in parallel wells of Huh-7 cells. Uninfected cells were incubated with a range of compound concentrations (from 50 to 0.78 µM) for forty-eight hours, time at which the MTT substrate [3-(4,5-dimethylthiazol-2-yl)-2,5-diphenyltetrazolium bromide] was added and the formation of formazan precipitates was evaluated two hours later, using a colorimetric readout. Vehicle-treated (DMSO) cells were used as reference (100 %).

[8] = system: SARS-CoV-2; assay: Intracellular viral antigen (N protein) accumulation by immunofluorescence, A549-ACE2 cells; format: cell-based
[9] = system: vesicular stomatitis virus (VSV-GFP); assay: microbe, parasite or virus in culture; format: cell-based; settings: A549-ACE2, 16 h
[10] = system: West Nile virus (WNV-GFP); assay: microbe, parasite or virus in culture; format: cell-based; settings: Huh-7, 48 h
[11] = system: HCoV 229E (229E-GFP); assay: organism not typed; settings: Huh-7, 48 h
Experimental: as §1

[12] = in vitro; settings: African green monkey
[13] = in vitro; settings: human; remark: listed apart in the source
[14] = Severe acute respiratory syndrome coronavirus 2, Vero C1008, 72 h
[15] = Severe acute respiratory syndrome coronavirus 2, Vero C1008, approximate, estimated from PCmax and PCmin, Vero-E6, MOI 0.001, 72 h
[16] = Severe acute respiratory syndrome coronavirus 2, Vero C1008, minimum nominal concentration protecting the Vero-E6 monolayer from virus-induced cell death, MOI 0.001, 72 h, read-out: PCmin
[17] = Severe acute respiratory syndrome coronavirus 2, Vero C1008, real concentration, Vero-E6, MOI 0.001, 72 h, read-out: PC min real
[18] = Severe acute respiratory syndrome coronavirus 2, Vero C1008, Vero-E6, MOI 0.01, 24 h, N protein signal, read-out: EC50
[19] = Severe acute respiratory syndrome coronavirus 2, Vero C1008, Vero-E6, MOI 0.01, 24 h, N protein signal, read-out: EC90
[20] = Severe acute respiratory syndrome coronavirus 2, A549-ACE2, MOI 0.005, 48 h, N protein signal, read-out: EC50
[21] = Severe acute respiratory syndrome coronavirus 2, A549-ACE2, MOI 0.005, 48 h, N protein signal, read-out: EC90
[22] = Severe acute respiratory syndrome coronavirus 2, Vero C1008, 72 h, read-out: PC min real
[23] = Severe acute respiratory syndrome coronavirus 2, Vero C1008, 72 h, read-out: PCmin
[24] = Severe acute respiratory syndrome coronavirus 2, Vero C1008, 24 h
[25] = Severe acute respiratory syndrome coronavirus 2, A549-ACE2, 48 h

SMILES | EC50 [1, 14] | EC50 [1, 15] | minimal effective concentration [1, 16] | minimal effective concentration [1, 17] | minimal effective concentration [1, 22] | minimal effective concentration [1, 23] | also measured
CCCCCCOC(=O)[C@H](CCC(=O)NCCC1CCN(Cc2ccccc2)CC1)NC(=O)c1ccccc1 [NF0818] | 9.7 µM | – | – | – | – | – | PC min real ([1]; 72 h): 13.0 µM; PCmax real ([1]; 72 h): 51.9 µM
CCOC(=O)CC[C@H](NC(=O)OCc1ccccc1)C(=O)NCCC1CCN(Cc2ccccc2)CC1 [NF1313] | – | 19 µM | 25 µM | 25.3 µM | – | – | –
CCOC(=O)[C@H](CCC(=O)NCCC1CCN(Cc2ccccc2)CC1)NC(=O)c1ccccc1 [NF1316] | – | 19.4 µM | 25 µM | 25.9 µM | – | – | –
CCOC(=O)[C@H](CCC(=O)NCCC1CCN(Cc2ccccc2)CC1)NC(=O)c1ccc2cc(OC)ccc2c1 [NF1322] | – | 9.4 µM | 12.5 µM | 12.5 µM | – | – | –
CCCCCCOC(=O)[C@H](CCC(=O)NCCC1CCN(Cc2ccccc2)CC1)NC(=O)c1c[nH]c2ccccc12 [NF1325] | – | 19.6 µM | 25 µM | 26.1 µM | – | – | –
CCCCCCOC(=O)[C@H](CCC(=O)NCCC1CCN(Cc2ccccc2)CC1)NC(=O)c1cc(C)on1 [NF1328, n-Hexyl N^5-(2-(1-benzylpiperidin-4-yl)ethyl)-N^2-(5-methylisoxazole-3-carbonyl)-L-glutaminate] | – | 4.9 µM | 6.25 µM | 6.5 µM | – | – | –
CCCCCCOC(=O)[C@H](CCC(=O)NCCC1CCN(Cc2ccccc2)CC1)NC(=O)c1coc(C)n1 [NF1331, n-Hexyl N^5-(2-(1-benzylpiperidin-4-yl)ethyl)-N^2-(2-methyloxazole-4-carbonyl)-L-glutaminate] | – | 2.4 µM | 3.12 µM | 3.3 µM | – | – | CC50 [2]: > 50 µM; CC50 at 48 h [2]: > 50 µM; CC50 at 48 h [3]: 43 µM; CC50 [4]: > 50 µM; EC50 [5, 18]: 1500 nM; EC90 [5, 19]: 11 µM; CC50 at 48 h [6]: > 50 µM; CC50 [7]: > 50 µM; CC50 at 48 h [7]: > 50 µM; EC50 [8, 20]: 1800 nM; EC90 [8, 21]: 5 µM; EC50 [9]: 38 µM; EC90 [9]: > 50 µM; EC50 [10]: > 50 µM; EC90 [10]: > 50 µM; EC50 [11]: 2000 nM; EC90 [11]: 20 µM; CC50 [12]: > 50 µM; CC50 at 48 h [13]: > 50 µM
CCCCCCOC(=O)[C@H](CCC(=O)NCCC1CCN(Cc2ccccc2)CC1)NC(=O)Cc1cc(C)no1 [NF1334, n-Hexyl N^5-(2-(1-benzylpiperidin-4-yl)ethyl)-N^2-(2-(3-methylisoxazol-5-yl)acetyl)-L-glutaminate] | – | 10.5 µM | 25 µM | 14 µM | – | – | –
CCOC(=O)[C@H](CCC(=O)NCCC1CCN(Cc2ccccc2)CC1)NC(=O)c1cc(=O)c2cc(OC)ccc2o1 [NF1336, Ethyl N^5-(2-(1-benzylpiperidin-4-yl)ethyl)-N^2-(6-methoxy-4-oxo-4H-chromene-2-carbonyl)-L-glutaminate] | – | 18.4 µM | 25 µM | 24.5 µM | – | – | –
CCCCCCOC(=O)[C@H](CCC(=O)NCCC1CCN(Cc2ccccc2)CC1)NC(=O)c1cc(=O)c2cc(OC)ccc2o1 [NF1337, n-Hexyl N^5-(2-(1-benzylpiperidin-4-yl)ethyl)-N^2-(6-methoxy-4-oxo-4H-chromene-2-carbonyl)-L-glutaminate] | – | 7.7 µM | 12.5 µM | 10.3 µM | – | – | –
CCCCCCOC(=O)[C@H](CCC(=O)NCCC1CCN(Cc2ccccc2)CC1)NC(=O)c1cc(=O)c2c(OC)cc(OC)cc2o1 [NF1340, n-Hexyl N^5-(2-(1-benzylpiperidin-4-yl)ethyl)-N^2-(5,7-dimethoxy-4-oxo-4H-chromene-2-carbonyl)-L-glutaminate] | – | 41.8 µM | 50 µM | 55.7 µM | – | – | –
CCCCCCOC(=O)[C@H](CCC(=O)NCCC1CCN(Cc2ccccc2)CC1)NC(=O)OC(C)(C)C [NF1346] | 9.3 µM | – | – | – | 12.4 µM | 12.5 µM | –
CCCCCCOC(=O)[C@H](CCC(=O)NCCC1CCN(Cc2ccccc2)CC1)NC(=O)OCc1ccccc1 [NF1349] | 4.7 µM | – | – | – | 6.3 µM | 6.25 µM | EC50 [5, 24]: 3100 nM; EC90 [5, 24]: 7 µM; CC50 at 48 h [6]: > 50 µM; EC50 [8, 25]: 3000 nM; EC90 [8, 25]: 5.5 µM; EC50 [9]: 36 µM; EC90 [9]: 47 µM; EC50 [10]: 36 µM; EC90 [10]: > 50 µM; EC50 [11]: 2000 nM; EC90 [11]: 10 µM; CC50 [12]: > 50 µM
CCCCCCOC(=O)[C@H](CCC(=O)NCCC1CCN(Cc2ccccc2)CC1)NC(=O)c1cccs1 [NF1350] | 6.9 µM | – | – | – | 9.2 µM | 6.25 µM | –
CCCCCCOC(=O)[C@H](CCC(=O)NCCC1CCN(Cc2ccccc2)CC1)NC(=O)c1cc(Br)cs1 [NF1351] | 4.3 µM | – | – | – | 5.7 µM | 6.25 µM | –
CCCCCCOC(=O)[C@H](CCC(=O)NCCC1CCN(Cc2ccccc2)CC1)NC(=O)c1cc2ccccc2s1 [NF1352] | 9.2 µM | – | – | – | 12.3 µM | 12.5 µM | –
CCCCCCOC(=O)[C@H](CCC(=O)NCCC1CCN(Cc2ccccc2)CC1)NC(=O)Cc1cc2ccc(Cl)cc2s1 [NF1353] | 4.5 µM | – | – | – | 6 µM | 6.25 µM | –
CCCCCCOC(=O)[C@H](CCC(=O)NCCC1CCN(Cc2ccccc2)CC1)NC(=O)c1cc2cccnc2s1 [NF1354] | 20.9 µM | – | – | – | 27.8 µM | 25 µM | –
CCOC(=O)[C@H](CCC(=O)NCCC1CCN(Cc2ccccc2)CC1)NC(=O)c1cc2ccccc2oc1=O [NF1358, Ethyl N^5-(2-(1-benzylpiperidin-4-yl)ethyl)-N^2-(2-oxo-2H-chromene-3-carbonyl)-L-glutaminate] | – | 19.1 µM | 25 µM | 25.4 µM | – | – | –
CCOC(=O)[C@H](CCC(=O)NCCC1CCN(Cc2ccccc2)CC1)NC(=O)c1ccc2ccccc2n1 [NF1360, Ethyl N^5-(2-(1-benzylpiperidin-4-yl)ethyl)-N^2-(quinoline-2-carbonyl)-L-glutaminate] | – | 24.3 µM | 50 µM | 32.3 µM | – | – | –
O=C(CC[C@H](NC(=O)OCc1ccccc1)C(=O)OCCBr)NCCC1CCN(Cc2ccccc2)CC1 [NF1363, 2-Bromoethyl N^2-((benzyloxy)carbonyl)-N^5-(2-(1-benzylpiperidin-4-yl)ethyl)-L-glutaminate] | – | 5.4 µM | 6.25 µM | 7.3 µM | – | – | –
CCOC(=O)[C@H](CCC(=O)NCCC1CCN(Cc2ccccc2)CC1)NC(=O)OCc1ccccc1 [NF1365, Ethyl N^2-((benzyloxy)carbonyl)-N^5-(2-(1-benzylpiperidin-4-yl)ethyl)-L-glutaminate] | – | 2.4 µM | 3.12 µM | 3.2 µM | – | – | EC50 [5, 18]: 1800 nM; EC90 [5, 19]: 6 µM; CC50 at 48 h [6]: > 50 µM; EC50 [8, 20]: 1000 to 2000 nM; EC90 [8, 21]: 2.5 to 5 µM; EC50 [9]: 36 µM; EC90 [9]: 47 µM; EC50 [10]: 27 µM; EC90 [10]: 45 µM; EC50 [11]: 1000 nM; EC90 [11]: 8 µM; CC50 [12]: 50 µM
